Assay results taken from patent US8124051B2, “Complex drug delivery composition and method for treating cancer” (priority 2003, dated 2012).
Where no end group is shown, it is not given here. [ ]: non-standard residue; d: D form.

Legend:
[1] = test system: LHRHR-positive A2780 human ovarian carcinoma cells; test: Cytotoxicity, modified MTT assay; type: cell-based
Protocol: In contrast, LHRH-BH3 peptide was not toxic in cancer cells not expressing LHRHR. Further, non-targeted Ant-BH3 peptide was toxic in both LHRHR-positive and negative cancer cells. […] Thus, the LHRH peptide specifically targets cancer cells expressing the LHRHR and facilitates the uptake of LHRH-conjugates.
Cytotoxicity of CPT, CPT-PEG, CPT-PEG-BH3, and CPT-PEG-LHRH conjugates and the combination of CPT-PEG-BH3 with CPT-PEG-LHRH conjugates was analyzed using a modified MTT assay (Minko, et al. (1998) supra) in sensitive A2780 and multidrug resistant A2780/AD human ovarian carcinoma cells.
Cytotoxicity. The cytotoxicity of drugs were assessed using a modified MTT (3-(4,5-dimethylthiazol-2-yl)-2,5-diphenyltetrazolium bromide) assay (Kunath, et al. (2000) Eur. J. Pharm. Biopharm 49:11-15; Minko, et al. (1998) J. Controlled Rel. 54:223-233; Minko, et al. (1999) J. Controlled Rel. 59:133-148; Minko, et al. (2002) Cancer Chemother. Pharmacol. 50:143-150). To measure cytotoxicity, cells were incubated in a 96-well microtiter plate with 45 different equivalent concentrations of CPT ranging from […] in a complex conjugate. Six wells were used for control cells. The duration of incubation was varied from 3 to 72 hours to find an optimal range of incubation time for each complex conjugate.

[2] = test system: A2780 human ovarian carcinoma cells; test: RT-PCR expression of caspases, APAF-1 and SMAC; type: cell-based; conditions: A2780 cells
Protocol: The effect of the LHRH-BH3 peptide on apoptosis was analyzed by measuring transcriptional and translational levels and activity of human caspases. […] Active caspase 9, in turn, activates a cascade of downstream caspases, as evidenced by increased expression levels, which subsequently leads to induction of apoptosis.
Cystein aspartate-specific proteases (caspases). Three approaches were used to analyze the role of each of the human caspases in the apoptosis induction. First, the expression of genes encoding human caspases 1-10 and the Apoptotic Protease Activating Factor (APAF-1) and Second Mitochondria-Derived Activator of Caspase (SMAC) were studied by RT-PCR (Minko, et al. (1999) supra; Minko, et al. (2000) supra). […] Therefore, in addition to the measurement of the gene expression, the amount of active caspases and activity of the enzymes was measured. The amount of active caspases was estimated by western blot analysis. The activity of expressed caspases was measured using the Caspase Protease Assay kit (MBL International, Watertown, Mass.) or a colorimetric protease assay kit (PanVera, Madison, Wis.) (Minko, et al. (2001) supra). Cells were separately incubated with the conjugates for 48 hours. The assay colormetric assay is based on the spectrophotometric detection of the chromophore p-nitroanilide (pNA) after cleavage from the substrate, X-pNA. An increase in caspase activity was determined by comparing levels in cells exposed to conjugates to levels in cells of the untreated control incubated with saline.
Gene expression. A combination of reverse transcription (RT) and polymerase chain reaction (PCR) was used for the analysis of gene expression as described (Minko, et al. (1999) J. Controlled Rel. 59:133-148). Briefly, total cellular RNA was isolated using an RNeasy kit (QIAGEN,™, Valencia, Calif.) and a […]™ micro-spin homogenizer (QIAGEN). First-strand cDNA was synthesized by Ready-To-Go You-Prime First-Strand Beads (Amersham Biosciences, Piscataway, N.J.) according to the manufacturer's instructions with 2 μg of total cellular RNA (from 1×10^7 cells) and 100 ng of random hexadeoxynucleotide primer (Amersham Biosciences, Piscataway, N.J.). After synthesis, the reaction mixture was diluted 1:3 with water and immediately subjected to PCR, which was carried out using GenAmp PCR System 2400 (Perkin Elmer Instruments, Shelton, Conn.). The pairs of primers used to amplify each type of cDNA and PCR regimes are well-known in the art (Kunath, et al. (2000) supra; Minko, et al. (2003) supra; Minko, et al. (2002) supra; Minko, et al. (1999) supra; Minko, et al. (2000) supra; Minko, et al. (2001) supra). PCR products were separated in 4% NUSIEVE® 3:1 RELIANT® agarose gels (BMA, East Rutherford, N.J.) in 1×TBE buffer (0.089 M Tris/Borate, 0.002 M EDTA, pH 8.3) by submarine electrophoresis. The gels were stained with ethidium bromide and digitally photographed. To calculate the size and amount of PCR products, a Low DNA Mass ladder (GibcoBRL, Carlsbad, Calif.) was used. β2-microglobulin was used as an internal standard and to confirm the efficacy of PCR (Kunath, et al. (2000) supra; Minko, et al. (2001) supra).

[3] = test system: human ovarian carcinoma cells; test: Cytotoxicity (IC50 dose) of Ant, Ant-BH3 peptide and DOX; type: cell-based; conditions: highest possible concentration
Protocol: By way of example, the effectiveness of a BH3 peptide ([…] SEQ ID NO:1) to increase cell death by inducing the mitochondrial dysfunction leading to necrosis was measured. BH3 peptide was delivered into human ovarian carcinoma cells by the Antennapedia (Ant) internalization sequence (Arg-Gln-Ile-lys-[…] SEQ ID NO:2). Mitochondrial function was assessed by flow cytometry analysis using the lipophilic cationic fluorescent probe 5,5′,6,6′-tetrachloro-1,1′,3,3′-tetraethylbenzimidazolcarbo-cyanine iodide (JC-1). This probe exists as a monomer, and upon excitation at 490 nm, emits light at 527 nm resulting in green fluorescence. At high mitochondrial transmembrane potential, JC-1 forms multimers, known as J-aggregates, and emits light at 590 nm upon excitation at 490 nm resulting in red fluorescence. Therefore, the red/green fluorescence ratio measured by flow cytometry reflects the number of functioning mitochondria. […] The effect of the Ant-BH3 peptide on mitochondrial transmembrane potential was also determined.
Cytotoxicity. The cytotoxicity of drugs were assessed using a modified MTT (3-(4,5-dimethylthiazol-2-yl)-2,5-diphenyltetrazolium bromide) assay (Kunath, et al. (2000) Eur. J. Pharm. Biopharm 49:11-15; Minko, et al. (1998) J. Controlled Rel. 54:223-233; Minko, et al. (1999) J. Controlled Rel. 59:133-148; Minko, et al. (2002) Cancer Chemother. Pharmacol. 50:143-150). […]

LHRH receptor = target: T1, LHRH receptor (human, UniProt P30968 1-328); test: cell-based or functional assay
T1 sequence (looked up): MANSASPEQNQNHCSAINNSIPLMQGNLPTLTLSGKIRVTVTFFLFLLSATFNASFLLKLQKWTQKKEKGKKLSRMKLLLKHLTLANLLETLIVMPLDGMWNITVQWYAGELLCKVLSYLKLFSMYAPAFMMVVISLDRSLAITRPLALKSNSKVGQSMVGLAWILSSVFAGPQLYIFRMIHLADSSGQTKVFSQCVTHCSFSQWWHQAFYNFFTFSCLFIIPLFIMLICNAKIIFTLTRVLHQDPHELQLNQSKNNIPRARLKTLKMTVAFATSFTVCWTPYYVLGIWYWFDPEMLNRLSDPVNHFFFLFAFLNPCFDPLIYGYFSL

Met-Gly-Gln-Val-Gly-Arg-Gln-Leu-Ala-Ile-Ile-Gly-Asp-Asp-Ile-Asn-Arg-Arg-Tyr (MGQVGRQLAIIGDDINRRY; Synthetic BH3 domain peptide) [BH3 peptide]
concentration up to which not toxic ([1]; A2780, maximal possible concentration limited by solubility): > 1 mg/mL
expression of caspases 1, 4, and 5 [2]: not expressed

Arg-Gln-Ile-lys-Ile-Trp-Phe-Gln-Asn-Arg-Arg-Met-Lys-Trp-Lys-Lys (RQIKIWFQNRRMKWKK; Antennapedia internalization peptide)
concentration up to which not toxic [3]: > 1 mg/mL

CCNC(=O)[C@@H]1CCCN1C(=O)[C@H](CCCNC(=N)N)NC(=O)[C@H](CC(C)C)NC(=O)[C@@H](CCCCN)NC(=O)[C@H](Cc1ccc(O)cc1)NC(=O)[C@H](CO)NC(=O)[C@H](Cc1c[nH]c2ccccc12)NC(=O)[C@H](Cc1c[nH]cn1)NC(=O)[C@@H]1CCC(=O)N1 [LHRH peptide, LHRH-Lys^6-des-Gly^10-Pro^9-ethylamide, reference compound]
toxicity ([1]; LHRHR-positive cancer cells, up to the highest possible concentration): did not have any significant toxicity

QHWSY[dK]LRP-NHEt (ends and bridges not checked) [LHRH-Lys^6-des-Gly^10-Pro^9-ethylamide (active analog of the LHRH peptide)]
concentration of LHRH that decreased cytotoxicity of LHRH-BH3 peptide by 50% (EC50 dose of LHRH peptide), A2780 cells (LHRH receptor): 7.3e-05 ng/mL

B1: LHRH-BH3 peptide (peptide)
peptide 1: QHWSY[dK]LRP-NHEt
peptide 2: MGQVGRQLAIIGDDINRRY
modifications: ends and bridges not checked; also: LHRH analog and BH3 peptide are joined, the linkage is not given here
cytotoxicity IC50 (modified MTT assay), LHRHR-positive A2780 human ovarian cancer cells (LHRH receptor): 3.97 ng/mL
toxicity in MCF-7 cells (LHRHR expression 1.6-fold less) relative to toxicity in A2780 cells, fold less (LHRH receptor): 10 fold
toxicity in PC-3 cells (LHRHR expression 3.2-fold less) relative to toxicity in A2780 cells, fold less (LHRH receptor): 100 fold
